Measurements taken from patent US20240279207A1, “SUBSTITUTED ACYL SULFONAMIDES FOR TREATING CANCER” (The Broad Institute, Inc., priority 2020, published 2024).

Experiments:
[1] = system: ESR1 transcription in MVLN cells; test: MVLN reporter assay: repression of ESR1 transcription (luciferase signal); assay type: cell-based; conditions: Homo sapiens, MVLN, 24 h, luciferase signal after 24 h, read-out: MVLN reporter assay, IC50 [M] (arithmetic mean)
Outline: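 MVLN cells, expressing ER and stably carrying a vitellogenin A2 ERE-luciferase reporter, treated with compound in duplicate; luciferase read after 24 h with Steadylite plus. Cell density checked in parallel by Alamar Blue fluorescence (530/590 nm, 2 h) before the luciferase read.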

[2] = biological target: T1, Recombinant human His-tagged Kat6a protein (amino acids 194-810) (Homo sapiens, UniProt Q92794); test: Kat6a activity assay (TR-FRET, acetylation of Histone-H4-derived peptide); assay type: biochemical; conditions: 60 mins at 22° C., 220 nM H4 peptide, 600 nM Acetyl Coenzyme A, read-out: KAT6A - DPF/HAT domain IC50 [mol/l] (arithmetic mean)
T1 construct: Kat6a protein (amino acids 194-810); His
T1 sequence (Q92794 194-810): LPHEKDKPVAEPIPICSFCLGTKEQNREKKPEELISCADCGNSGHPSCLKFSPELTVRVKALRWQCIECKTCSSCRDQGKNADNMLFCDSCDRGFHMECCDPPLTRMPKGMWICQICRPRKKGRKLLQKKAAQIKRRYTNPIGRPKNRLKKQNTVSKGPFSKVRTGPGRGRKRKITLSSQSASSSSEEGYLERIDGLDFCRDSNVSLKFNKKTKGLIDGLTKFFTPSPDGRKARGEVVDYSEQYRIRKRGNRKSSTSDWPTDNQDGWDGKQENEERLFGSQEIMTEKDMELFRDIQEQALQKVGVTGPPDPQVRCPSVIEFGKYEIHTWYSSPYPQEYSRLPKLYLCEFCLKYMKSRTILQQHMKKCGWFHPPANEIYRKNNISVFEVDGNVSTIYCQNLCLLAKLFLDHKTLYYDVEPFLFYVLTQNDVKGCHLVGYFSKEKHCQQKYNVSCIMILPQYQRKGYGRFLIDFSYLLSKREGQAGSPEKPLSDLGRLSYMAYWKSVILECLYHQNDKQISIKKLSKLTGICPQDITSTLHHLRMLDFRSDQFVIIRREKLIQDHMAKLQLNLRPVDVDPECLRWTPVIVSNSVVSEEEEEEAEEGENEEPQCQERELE

SMILES | IC50 [1] | IC50 [2]
CC(=O)c1ccc(Cl)c(S(=O)(=O)NC(=O)c2cc3c(F)cc(N4CCC4)cc3o2)c1 [Example 99, N-(5-Acetyl-2-chlorobenzene-1-sulfonyl)-6-(azetidin-1-yl)-4-fluoro-1-benzofuran-2-carboxamide] | 8.1e-07 M | 272 nM
CC(C)OC(=O)c1ccccc1S(=O)(=O)NC(=O)c1cc2c(F)cc(N3CCC3)cc2o1 [Example 101, Propan-2-yl 2-{[6-(azetidin-1-yl)-4-fluoro-1-benzofuran-2-carbonyl]sulfamoyl}benzoate] | 1.94e-06 M | 121 nM
COC(=O)CCc1ccccc1S(=O)(=O)NC(=O)c1cc2c(F)cc(N3CCC3)cc2o1 [Example 102, Methyl 3-(2-{[6-(azetidin-1-yl)-4-fluoro-1-benzofuran-2-carbonyl]sulfamoyl}phenyl)propanoate] | 4.07e-06 M | 116 nM
O=C(NS(=O)(=O)c1cc(C(F)(F)F)cnc1Cl)c1cc2c(F)cc(N3CCC3)cc2o1 [Example 103, 6-(Azetidin-1-yl)-N-[2-chloro-5-(trifluoromethyl)pyridine-3-sulfonyl]-4-fluoro-1-benzofuran-2-carboxamide] | 1.02e-05 M | 613 nM
Cc1nc(N)c(S(=O)(=O)NC(=O)c2cc3c(F)cc(N4CCC4)cc3o2)c(C)c1Cl [Example 104, N-(2-amino-5-chloro-4,6-dimethylpyridine-3-sulfonyl)-6-(azetidin-1-yl)-4-fluoro-1-benzofuran-2-carboxamide] | 1.05e-05 M | 793 nM
O=C(NS(=O)(=O)c1ccc(O)c2ccccc12)c1cc2c(F)cc(N3CCC3)cc2o1 [Example 106, 6-(Azetidin-1-yl)-4-fluoro-N-(4-hydroxynaphthalene-1-sulfonyl)-1-benzofuran-2-carboxamide] | > 2e-05 M | > 20000 nM
O=C(NS(=O)(=O)c1cccc2c1CCCC2)c1cc2c(F)cc(N3CC(F)C3)cc2o1 [Example 108, 4-Fluoro-6-(3-fluoroazetidin-1-yl)-N-(5,6,7,8-tetrahydronaphthalene-1-sulfonyl)-1-benzofuran-2-carboxamide] | 1.29e-07 M | 68.6 nM
O=C(NS(=O)(=O)c1cccc2c1OCCO2)c1cc2c(F)cc(N3CC(F)C3)cc2o1 [Example 109, N-(2,3-dihydro-1,4-benzodioxine-5-sulfonyl)-4-fluoro-6-(3-fluoroazetidin-1-yl)-1-benzofuran-2-carboxamide] | 5.92e-07 M | 172 nM
O=C(NS(=O)(=O)c1cccc2c1NCCC2)c1cc2c(F)cc(N3CC(F)C3)cc2o1 [Example 110, 4-Fluoro-6-(3-fluoroazetidin-1-yl)-N-(1,2,3,4-tetrahydroquinoline-8-sulfonyl)-1-benzofuran-2-carboxamide] | 5.47e-07 M | 208 nM
O=C(NS(=O)(=O)c1ccnc2ccccc12)c1cc2c(F)cc(N3CC(F)C3)cc2o1 [Example 111, 4-Fluoro-6-(3-fluoroazetidin-1-yl)-N-(quinoline-4-sulfonyl)-1-benzofuran-2-carboxamide] | > 2e-05 M | 3080 nM
CN1CCc2c(cccc2S(=O)(=O)NC(=O)c2cc3c(F)cc(N4CC(F)C4)cc3o2)C1 [Example 112, 4-Fluoro-6-(3-fluoroazetidin-1-yl)-N-(2-methyl-1,2,3,4-tetrahydroisoquinoline-5-sulfonyl)-1-benzofuran-2-carboxamide] | > 2e-05 M | 5210 nM
O=C(NS(=O)(=O)c1ccccc1C(Cl)Cl)c1cc2c(F)cc(N3CC(F)C3)cc2o1 [Example 114, N-[2-(dichloromethyl)benzene-1-sulfonyl]-4-fluoro-6-(3-fluoroazetidin-1-yl)-1-benzofuran-2-carboxamide] | > 2e-05 M | 406 nM
Cc1nc(-c2ccc(S(=O)(=O)NC(=O)c3cc4c(F)cc(N5CC(F)C5)cc4o3)cc2)cs1 [Example 115, 4-Fluoro-6-(3-fluoroazetidin-1-yl)-N-[4-(2-methyl-1,3-thiazol-4-yl)benzene-1-sulfonyl]-1-benzofuran-2-carboxamide] | 3.81e-06 M | 563 nM
CCOc1ccccc1S(=O)(=O)NC(=O)c1cc2ccc(N3CC(C(F)(F)F)C3)cc2o1 [Example 117, N-(2-Ethoxybenzene-1-sulfonyl)-6-[3-(trifluoromethyl)azetidin-1-yl]-1-benzofuran-2-carboxamide] | 1.73e-05 M | 12900 nM

Now from value to molecule:

IC50 [1] | IC50 [2] | SMILES
> 2e-05 M | 13400 nM | CCOc1ccccc1S(=O)(=O)NC(=O)c1cc2ccc(N3CC(OCC)C3)cc2o1 [Example 121, 6-(3-Ethoxyazetidin-1-yl)-N-(2-ethoxybenzene-1-sulfonyl)-1-benzofuran-2-carboxamide]
> 2e-05 M | > 20000 nM | CCOc1ccccc1S(=O)(=O)NC(=O)c1cc2ccc(N3CC4(CCC4)C3)cc2o1 [Example 123, 6-(2-Azaspiro[3.3]heptan-2-yl)-N-(2-ethoxybenzene-1-sulfonyl)-1-benzofuran-2-carboxamide]
1.74e-07 M | 26.2 nM | COc1ccc(N2CCOCC2)cc1S(=O)(=O)NC(=O)c1cc2c(F)cc(N3CCC3)cc2o1 [Example 137, 6-(Azetidin-1-yl)-4-fluoro-N-[2-methoxy-5-(morpholin-4-yl)benzene-1-sulfonyl]-1-benzofuran-2-carboxamide]
2.36e-07 M | 41.3 nM | COc1ccc(Br)cc1S(=O)(=O)NC(=O)c1cc2c(F)cc(N3CCC3)cc2o1 [Example 139, 6-(azetidin-1-yl)-N-(5-bromo-2-methoxybenzene-1-sulfonyl)-4-fluoro-1-benzofuran-2-carboxamide]
5.12e-07 M | 139 nM | O=C(NS(=O)(=O)c1cccc2c1S(=O)(=O)CCC2)c1cc2c(F)cc(N3CCC3)cc2o1 [Example 141, 6-(Azetidin-1-yl)-N-(1,1-dioxo-1,2,3,4-tetrahydro-1-benzothiopyran-8-sulfonyl)-4-fluoro-1-benzofuran-2-carboxamide]
1.2e-06 M | 149 nM | O=C(NS(=O)(=O)c1c(Cl)ccc2c1OC(F)(F)O2)c1cc2c(F)cc(N3CCC3)cc2o1 [Example 142, 6-(Azetidin-1-yl)-N-(5-chloro-2,2-difluoro-2H-1,3-benzodioxole-4-sulfonyl)-4-fluoro-1-benzofuran-2-carboxamide]
4.61e-06 M | 226 nM | CCn1nc(S(=O)(=O)NC(=O)c2cc3c(F)cc(N4CCC4)cc3o2)c2cccnc21 [Example 143, 6-(Azetidin-1-yl)-N-(1-ethyl-1H-pyrazolo[3,4-b]pyridine-3-sulfonyl)-4-fluoro-1-benzofuran-2-carboxamide]
7.93e-06 M | 548 nM | Cn1nc(S(=O)(=O)NC(=O)c2cc3c(F)cc(N4CCC4)cc3o2)c2ccc(C(F)(F)F)nc21 [Example 144, 6-(Azetidin-1-yl)-4-fluoro-N-[1-methyl-6-(trifluoromethyl)-1H-pyrazolo[3,4-b]pyridine-3-sulfonyl]-1-benzofuran-2-carboxamide]
8.4e-06 M | 402 nM | Cc1ccc2c(S(=O)(=O)NC(=O)c3cc4c(F)cc(N5CCC5)cc4o3)nn(C)c2n1 [Example 145, 6-(Azetidin-1-yl)-N-(1,6-dimethyl-1H-pyrazolo[3,4-b]pyridine-3-sulfonyl)-4-fluoro-1-benzofuran-2-carboxamide]
2.83e-06 M | 290 nM | Cc1ccnc2c1c(S(=O)(=O)NC(=O)c1cc3c(F)cc(N4CCC4)cc3o1)nn2C [Example 146, 6-(Azetidin-1-yl)-N-(1,4-dimethyl-1H-pyrazolo[3,4-b]pyridine-3-sulfonyl)-4-fluoro-1-benzofuran-2-carboxamide]
2.98e-06 M | 91.5 nM | CCCc1ccc2nc(Cl)c(S(=O)(=O)NC(=O)c3cc4c(F)cc(N5CCC5)cc4o3)n2n1 [Example 147, 6-(Azetidin-1-yl)-N-(2-chloro-6-propylimidazo[1,2-b]pyridazine-3-sulfonyl)-4-fluoro-1-benzofuran-2-carboxamide]
3.14e-06 M | 274 nM | CCSc1nc2ccccn2c1S(=O)(=O)NC(=O)c1cc2c(F)cc(N3CCC3)cc2o1 [Example 148, 6-(Azetidin-1-yl)-N-[2-(ethylsulfanyl)imidazo[1,2-a]pyridine-3-sulfonyl]-4-fluoro-1-benzofuran-2-carboxamide]
3.66e-06 M | 261 nM | CSc1nc2ccccn2c1S(=O)(=O)NC(=O)c1cc2c(F)cc(N3CCC3)cc2o1 [Example 149, 6-(Azetidin-1-yl)-4-fluoro-N-[2-(methylsulfanyl)imidazo[1,2-a]pyridine-3-sulfonyl]-1-benzofuran-2-carboxamide]
1.05e-07 M | 25.7 nM | COc1cc(C)ccc1S(=O)(=O)NC(=O)c1cc2c(F)cc(N3CC(F)C3)cc2o1 [Example 158, 4-Fluoro-6-(3-fluoroazetidin-1-yl)-N-(2-methoxy-4-methylbenzene-1-sulfonyl)-1-benzofuran-2-carboxamide]
7.45e-07 M | 34.3 nM | O=C(NS(=O)(=O)c1cccc2c1OC(F)(F)C(F)(F)O2)c1cc2c(F)cc(N3CC(F)C3)cc2o1 [Example 159, 4-Fluoro-6-(3-fluoroazetidin-1-yl)-N-(2,2,3,3-tetrafluoro-2,3-dihydro-1,4-benzodioxine-5-sulfonyl)-1-benzofuran-2-carboxamide]
2.34e-06 M | 251 nM | CC(C)N(C)c1cc(F)c(S(=O)(=O)NC(=O)c2cc3c(F)cc(N4CC(F)C4)cc3o2)c(F)c1 [Example 164, N-{2,6-difluoro-4-[methyl(propan-2-yl)amino]benzene-1-sulfonyl}-4-fluoro-6-(3-fluoroazetidin-1-yl)-1-benzofuran-2-carboxamide]
